According to patent US9890111B2, “Crystal structure of bifunctional transglycosylase PBP1b from E. coli and inhibitors thereof” (Academia Sinica, priority 2008, dated 2018):
≈ marks a conversion by molar mass, not a printed value.

Biological target: T1, penicillin-binding protein 1b from E. coli (transglycosylase) (Escherichia coli, UniProt P02919)
T1 construct: PBP1b[58-804] was amplified from E. coli genomic DNA and cloned into the expression vector pET15b; His6 (N, cleaved yes); made in house; host or cells: E. coli BL21(DE3)
T1 sequence (P02919 58-804): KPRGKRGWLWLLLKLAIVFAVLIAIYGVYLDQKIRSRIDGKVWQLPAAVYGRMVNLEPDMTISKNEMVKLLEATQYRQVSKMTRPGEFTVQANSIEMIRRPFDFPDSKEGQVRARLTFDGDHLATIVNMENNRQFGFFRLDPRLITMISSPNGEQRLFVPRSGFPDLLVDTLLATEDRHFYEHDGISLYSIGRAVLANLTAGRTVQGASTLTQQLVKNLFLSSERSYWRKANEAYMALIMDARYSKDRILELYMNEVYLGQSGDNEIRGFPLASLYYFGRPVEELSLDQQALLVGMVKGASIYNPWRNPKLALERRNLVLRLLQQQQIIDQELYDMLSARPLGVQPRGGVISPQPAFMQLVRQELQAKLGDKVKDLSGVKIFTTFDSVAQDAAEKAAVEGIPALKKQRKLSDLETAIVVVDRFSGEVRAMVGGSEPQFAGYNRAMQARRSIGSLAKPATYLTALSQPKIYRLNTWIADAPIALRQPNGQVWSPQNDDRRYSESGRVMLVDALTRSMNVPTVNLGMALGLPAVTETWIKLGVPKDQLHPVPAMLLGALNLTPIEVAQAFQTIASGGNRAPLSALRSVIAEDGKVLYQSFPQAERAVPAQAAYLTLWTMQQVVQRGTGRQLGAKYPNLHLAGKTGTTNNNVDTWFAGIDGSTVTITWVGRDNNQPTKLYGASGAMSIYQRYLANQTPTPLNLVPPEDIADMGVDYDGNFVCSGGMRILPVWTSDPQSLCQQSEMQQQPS
Assay: Lipid II polymerization / transglycosylase (TG) activity assay
Format: biochemical
Conditions: 25 μM compound; TG activity remaining (0% = full inhibition)
Method: Lipid II polymerization assays were carried out by incubating 100 μM fluorophore-labeled lipid II and penicillin-binding protein 1b from E. coli in tubes containing 10 ng/μL N-acetyl muramidase in 50 mM Tris.HCl (pH 8.0), 10 mM MgCl2, 0.1% Triton X-100, 10% DMSO, and 15% MeOH for 30 minutes (Van Nieuwenhze et al. J Am Chem Soc 2002, 124, 3656.). The fluorophore can be dansyl chloride, NBD, BODIPY, fluorescein. Reaction supernatants were then injected onto an anion-exchange HPLC column (SAX1, Supelco Co.) and eluted with a linear gradient of ammonium acetate (20 mM to 0.5 M) in methanol. The eluant was monitored for fluorescence with λex=466 nm and λem=535 nm.
Purified protein was concentrated in 20 mM Tris-HCl (pH 8.0), 300 mM NaCl, and 1 mM DDM. Instead of using Dansyl lipid II, 6-(N-(7-nitrobenz-2-oxa-1,3-diazol-4-yl)amino) hexanoyl (NBD)-labeled Lipid II was prepared as described (Taubes G (2008) Science 321:356-361; Payne D J (2008) Science 321:1644-1645) and used as a substrate to measure TG enzymatic activity, with approach similar to what has been described previously (Holtje J V (1998) Microbiol Mol Biol Rev 62:181-203). Assays were carried out by using the following condition: NBD-Lipid II, 20 nM protein, 50 mM Tris HCl (pH 8.0), 10 mMCaCl2, 0.085% decyl PEG (Anatrace), and 15% MeOH at 37° C. for 0, 1, 3, 5, 7, 9, 20, and 30 min. The concentration of NBD-Lipid II was varied from 1 to 100 μM to determine the rate of the TG activity. After the reaction, 200 μM moenomycin was added to stop the reaction, and 13 μM muramidase (Sigma-Aldrich) was added to digest the TG products to result in NBD-Lipid II without lipid tails. The fluorescent signal decrease of substrate and increase of NBD-Lipid II without lipid tails were detected by anion-exchange column SAX1 (Supelco) on HPLC (Hitachi). The elution procedures was a linear gradient of ammonium acetate (20 mM to 1 M) in MeOH monitored at λexcitation=466 nm and λemission=535 nm. The kinetic parameter was estimated by following the Michaelis-Menten equation. To investigate the importance of transmembrane (TM) helix, PBP1b and PBP1bΔTM (residues Met-1 to Leu-87 were removed) were extracted with the buffer containing 20 mM Tris-HCl (pH 8.0), 300 mM NaCl, and 13 mM FOS-CHOLINE-14 (Anatrace). The protein was purified by nickel chelation chromatography in the presence of 1 mM DDM. The activity assay was carried out by using the following condition: 12 μM NBD-Lipid II, 20 nM protein, 50 mM Tris-HCl (pH 8.0), 10 mM CaCl2, 0.085% decyl PEG, and 15% MeOH at 37° C. for time 0, 1, 3, 5, 7, 9, 20, and 30 min. The initial velocity was used to compare the activity of full-length PBP1b and PBP1bΔTM.

Row | SMILES | TG Activity at various concentration of cmpd: 25 μM
1 | Cc1ccc(C(C)C)c(Oc2ccccc2NC(=O)c2cc(I)cc(I)c2O)c1 [Compound 201] | 30%
2 | Cc1ccc(C(C)C)c(Oc2cc(Cl)ccc2NC(=O)c2cc(Br)cc(Br)c2O)c1 [Compound 202] | 20%
3 | Cc1ccc(C(C)C)c(Oc2ccccc2NC(=O)c2cc(Br)cc(Br)c2O)c1 [Compound 204] | 50%
4 | Cc1ccc(C(C)C)cc1Oc1ccc(Cl)cc1NC(=O)c1cc(Cl)cc(Br)c1O [Compound 206] | 60%
5 | O=C(c1ccc(Cl)cc1)c1ccc(Oc2ccc(Cl)cc2)c(NC(=O)c2cc(I)cc(I)c2O)c1 [Compound 207] | 20%
6 | Cc1ccc(C(C)C)c(Oc2ccc(Cl)cc2NC(=O)c2cc(I)cc(I)c2O)c1 [Compound 208] | 100%
7 | Cc1ccc(C(C)C)c(Oc2ccc(Cl)cc2NC(=O)c2cc(Cl)cc(Cl)c2O)c1 [Compound 209] | 60%

Same assay, conditions: 50 μM compound; TG activity remaining (0% = full inhibition)

Row | SMILES | TG Activity at various concentration of cmpd: 50 μM
8 | Cc1ccc(C(=O)c2cc(Cl)cc(NC(=O)c3cc(Br)cc(Br)c3O)c2Cl)cc1 [Compound 145] | 100%
9 | Cc1ccc(C(C)C)c(Oc2ccccc2NC(=O)c2cc(I)cc(I)c2O)c1 [Compound 201] | 0%
10 | Cc1ccc(C(C)C)c(Oc2cc(Cl)ccc2NC(=O)c2cc(Br)cc(Br)c2O)c1 [Compound 202] | 0%
11 | Cc1ccc(C(C)C)c(Oc2ccccc2NC(=O)c2cc(Br)cc(Br)c2O)c1 [Compound 204] | 0%
12 | Cc1ccc(C(C)C)cc1Oc1ccc(Cl)cc1NC(=O)c1cc(Cl)ccc1O [Compound 205] | 90%
13 | Cc1ccc(C(C)C)cc1Oc1ccc(Cl)cc1NC(=O)c1cc(Cl)cc(Br)c1O [Compound 206] | 0%
14 | O=C(c1ccc(Cl)cc1)c1ccc(Oc2ccc(Cl)cc2)c(NC(=O)c2cc(I)cc(I)c2O)c1 [Compound 207] | 0%
15 | Cc1ccc(C(C)C)c(Oc2ccc(Cl)cc2NC(=O)c2cc(I)cc(I)c2O)c1 [Compound 208] | 0%
16 | Cc1ccc(C(C)C)c(Oc2ccc(Cl)cc2NC(=O)c2cc(Cl)cc(Cl)c2O)c1 [Compound 209] | 0%
17 | O=C(Nc1ccccc1Oc1ccccc1)c1cc(Br)cc(Br)c1O [Compound A1N2] | 100%
18 | O=C(Nc1ccc(Cl)cc1)c1cc(Br)cc(Br)c1O [Compound A1N4] | 100%
19 | O=C(Nc1cc(Cl)ccc1Oc1ccccc1)c1cc(Br)cc(Br)c1 [Compound A2N1] | 100%
20 | O=C(Nc1ccccc1Oc1ccccc1)c1cc(Br)cc(Br)c1 [Compound A2N2] | 100%
21 | Cc1ccc(NC(=O)c2cc(Br)cc(Br)c2)cc1Cl [Compound A2N3] | 100%
22 | O=C(Nc1cc(Cl)ccc1Oc1ccccc1)c1ccccc1O [Compound A3N1] | 100%

Same assay, conditions: 100 μM compound; TG activity remaining (0% = full inhibition)

Row | SMILES | TG Activity at various concentration of cmpd: 100 μM
23 | Cc1ccc(C(=O)c2cc(Cl)cc(NC(=O)c3cc(Br)cc(Br)c3O)c2Cl)cc1 [Compound 145] | 0%
24 | O=C(Nc1ccccc1Oc1ccccc1)c1cc(Br)cc(Br)c1O [Compound A1N2] | 100%
25 | O=C(Nc1cc(Cl)ccc1Oc1ccccc1)c1cc(Br)cc(Br)c1 [Compound A2N1] | 100%
26 | O=C(Nc1ccccc1Oc1ccccc1)c1cc(Br)cc(Br)c1 [Compound A2N2] | 100%
27 | Cc1ccc(NC(=O)c2cc(Br)cc(Br)c2)cc1Cl [Compound A2N3] | 100%
28 | O=C(Nc1cc(Cl)ccc1Oc1ccccc1)c1ccccc1O [Compound A3N1] | 100%

Tested on: Staphylococcus aureus (ATCC29213, SA)
Assay: Minimal inhibitory concentration (MIC), SA
Format: cell-based
Conditions: Staphylococcus aureus ATCC29213
Method: (§1) The minimal inhibitory concentration (MIC) of tested compounds was determined following the NCCLS standard. The experiments were conducted in 96-well microtiter plates using two-fold dilutions in Muller-Hilton broth with (Streptococcus pneumonia) or without blood (Bacillus subtilis, Enterococcus faecalis, Staphylococcus aureus, Escherichia coli, MRSA, Actinetobacter baumannii, Pseudomonas aeruginosa, Stenotrophomonas maltophilia, and Mycobacterium smegmatis). Exponentially growing cells at 5×10^5 cells/ml were incubated with test compounds at various concentrations. After an 18 h to 24 h incubation at 37° C., MIC was determined as the minimal concentration of the compound that prevents bacterial growth.

Row | SMILES | MIC SA
29 | Cc1ccc(C(=O)c2cc(Cl)cc(NC(=O)c3cc(Br)cc(Br)c3O)c2Cl)cc1 [Compound 145] | >4 µg/mL
30 | Cc1ccc(C(C)C)c(Oc2ccccc2NC(=O)c2cc(I)cc(I)c2O)c1 [Compound 201] | 4 µg/mL (≈ 6.52 µM)
31 | Cc1ccc(C(C)C)c(Oc2cc(Cl)ccc2NC(=O)c2cc(Br)cc(Br)c2O)c1 [Compound 202] | 1 µg/mL (≈ 1.81 µM)
32 | Cc1ccc(C(C)C)c(Oc2ccccc2NC(=O)c2cc(Br)cc(Br)c2O)c1 [Compound 204] | 1 µg/mL (≈ 1.93 µM)
33 | Cc1ccc(C(C)C)cc1Oc1ccc(Cl)cc1NC(=O)c1cc(Cl)ccc1O [Compound 205] | 0.5 µg/mL (≈ 1.16 µM)
34 | Cc1ccc(C(C)C)cc1Oc1ccc(Cl)cc1NC(=O)c1cc(Cl)cc(Br)c1O [Compound 206] | 1 µg/mL (≈ 1.96 µM)
35 | O=C(c1ccc(Cl)cc1)c1ccc(Oc2ccc(Cl)cc2)c(NC(=O)c2cc(I)cc(I)c2O)c1 [Compound 207] | 8 µg/mL (≈ 11 µM)
36 | Cc1ccc(C(C)C)c(Oc2ccc(Cl)cc2NC(=O)c2cc(I)cc(I)c2O)c1 [Compound 208] | 4 µg/mL (≈ 6.18 µM)
37 | Cc1ccc(C(C)C)c(Oc2ccc(Cl)cc2NC(=O)c2cc(Cl)cc(Cl)c2O)c1 [Compound 209] | 1 µg/mL (≈ 2.15 µM)
38 | O=C(Nc1ccccc1Oc1ccccc1)c1cc(Br)cc(Br)c1O [Compound A1N2] | >32 µg/mL
39 | O=C(Nc1ccc(Cl)cc1)c1cc(Br)cc(Br)c1O [Compound A1N4] | 1 µg/mL (≈ 2.47 µM)
40 | O=C(Nc1cc(Cl)ccc1Oc1ccccc1)c1cc(Br)cc(Br)c1 [Compound A2N1] | >32 µg/mL
41 | O=C(Nc1ccccc1Oc1ccccc1)c1cc(Br)cc(Br)c1 [Compound A2N2] | >32 µg/mL
42 | Cc1ccc(NC(=O)c2cc(Br)cc(Br)c2)cc1Cl [Compound A2N3] | >32 µg/mL
43 | O=C(Nc1cc(Cl)ccc1Oc1ccccc1)c1ccccc1O [Compound A3N1] | 1 µg/mL (≈ 2.94 µM)

Tested on: methicillin-resistant Staphylococcus aureus (ATCC33592, MRSA)
Assay: Minimal inhibitory concentration (MIC), MRSA
Format: cell-based
Conditions: methicillin-resistant Staphylococcus aureus ATCC33592
Method: as §1

Row | SMILES | MIC MRSA
44 | Cc1ccc(C(=O)c2cc(Cl)cc(NC(=O)c3cc(Br)cc(Br)c3O)c2Cl)cc1 [Compound 145] | >4 µg/mL
45 | Cc1ccc(C(C)C)c(Oc2ccccc2NC(=O)c2cc(I)cc(I)c2O)c1 [Compound 201] | 2 µg/mL (≈ 3.26 µM)
46 | Cc1ccc(C(C)C)c(Oc2cc(Cl)ccc2NC(=O)c2cc(Br)cc(Br)c2O)c1 [Compound 202] | 1 µg/mL (≈ 1.81 µM)
47 | Cc1ccc(C(C)C)c(Oc2ccccc2NC(=O)c2cc(Br)cc(Br)c2O)c1 [Compound 204] | 4 µg/mL (≈ 7.7 µM)
48 | Cc1ccc(C(C)C)cc1Oc1ccc(Cl)cc1NC(=O)c1cc(Cl)ccc1O [Compound 205] | 0.5 µg/mL (≈ 1.16 µM)
49 | Cc1ccc(C(C)C)cc1Oc1ccc(Cl)cc1NC(=O)c1cc(Cl)cc(Br)c1O [Compound 206] | 0.5 µg/mL (≈ 0.982 µM)
50 | O=C(c1ccc(Cl)cc1)c1ccc(Oc2ccc(Cl)cc2)c(NC(=O)c2cc(I)cc(I)c2O)c1 [Compound 207] | 4 µg/mL (≈ 5.48 µM)
51 | Cc1ccc(C(C)C)c(Oc2ccc(Cl)cc2NC(=O)c2cc(I)cc(I)c2O)c1 [Compound 208] | 0.5 µg/mL (≈ 0.772 µM)
52 | Cc1ccc(C(C)C)c(Oc2ccc(Cl)cc2NC(=O)c2cc(Cl)cc(Cl)c2O)c1 [Compound 209] | 0.25 µg/mL (≈ 0.538 µM)

Tested on: Mycobacterium smegmatis (ATCC11565, MS)
Assay: Minimal inhibitory concentration (MIC), MS
Format: cell-based
Conditions: Mycobacterium smegmatis ATCC11565
Method: as §1

Row | SMILES | MIC MS
53 | Cc1ccc(C(=O)c2cc(Cl)cc(NC(=O)c3cc(Br)cc(Br)c3O)c2Cl)cc1 [Compound 145] | >4 µg/mL
54 | Cc1ccc(C(C)C)c(Oc2ccccc2NC(=O)c2cc(I)cc(I)c2O)c1 [Compound 201] | 8 µg/mL (≈ 13 µM)
55 | Cc1ccc(C(C)C)c(Oc2cc(Cl)ccc2NC(=O)c2cc(Br)cc(Br)c2O)c1 [Compound 202] | 1 µg/mL (≈ 1.81 µM)
56 | Cc1ccc(C(C)C)c(Oc2ccccc2NC(=O)c2cc(Br)cc(Br)c2O)c1 [Compound 204] | 8 µg/mL (≈ 15.4 µM)
57 | Cc1ccc(C(C)C)cc1Oc1ccc(Cl)cc1NC(=O)c1cc(Cl)ccc1O [Compound 205] | 1 µg/mL (≈ 2.32 µM)
58 | Cc1ccc(C(C)C)cc1Oc1ccc(Cl)cc1NC(=O)c1cc(Cl)cc(Br)c1O [Compound 206] | 1 µg/mL (≈ 1.96 µM)
59 | O=C(c1ccc(Cl)cc1)c1ccc(Oc2ccc(Cl)cc2)c(NC(=O)c2cc(I)cc(I)c2O)c1 [Compound 207] | 32 µg/mL (≈ 43.8 µM)
60 | Cc1ccc(C(C)C)c(Oc2ccc(Cl)cc2NC(=O)c2cc(I)cc(I)c2O)c1 [Compound 208] | 2 µg/mL (≈ 3.09 µM)
61 | Cc1ccc(C(C)C)c(Oc2ccc(Cl)cc2NC(=O)c2cc(Cl)cc(Cl)c2O)c1 [Compound 209] | 0.5 µg/mL (≈ 1.08 µM)
